SMILES strings stand for the structures.

The values below come from patent publication US10647680B2, “Urea compound, preparation method therefor and medical use thereof” (Ancureall Pharmaceutical (Shanghai) Co., Ltd., priority 2016, dated 2020).

Holding throughout (type): cell-based
One assay has as its system HL-60 (FLT3 wild type). Put plainly: In vitro growth inhibition (GI50), HL-60. To be noted: Homo sapiens, Cell lines of leukemia, read-out: GI 50 HL60 FLT3 (WT). In outline: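 Cells in RPMI1640 with 10% FBS, seeded at 5–10×10^4 cells/mL, exposed next day to compound at 5,000 nM down to 0.01 nM (2- or 10-fold dilutions, ≤1% solvent) for 3–5 days at 37 °C. CCK8 absorbance at 450 nm, growth rate relative to pre-treatment and solvent controls, GI50 from concentration–growth curve.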

For assay [1], the system named is NCI-H1781 (HER2/ErbB2 Ins G776V,C mutant type). Nature of the assay: In vitro growth inhibition (GI50), NCI-H1781. To be noted: Homo sapiens. From the text: (§1) Tumor cell line is an effective cell model for studying the inhibition of tumor cell growth or proliferation in vitro. In the present invention, a representative tumor cell line was selected to determine the cell growth inhibition activity of the present compound. All cell lines used were from ATCC, DSMZ, and the Cell Bank of the Chinese Academy of Sciences. Cell culture conditions and methods were in accordance with the requirements of each cell line. Cells were subcultured in vitro for no more than 3 passages each time, and as required, single-clone purification and identification of cell lines could be carried out.
(§2) The cell culture media used were RPMI1640 (Gibco), MEM (Gibco), McCOY'S5A (Gibco), and IMDM (Gibco). The complete medium was prepared by supplement with 5˜20% fetal calf serum (Gibco), 1% double-antibiotics (10000 units/mL penicillin and 10000 units/mL), 2 mM glutamine or 1 mM sodium pyruvate, respectively.
Human gastric cancer cell line NCI-N87 (HER2/ErbB2 amp, ATCC), human breast cancer cell line HCC1954 (HER2/ErbB2 amp, ATCC) and ZR-75-30 (HER2/ErbB2 amp, ATCC), human adenocarcinoma cell line AU565 (HER2/ErbB2 amp, ATCC), human lung squamous cell carcinoma cell line NCI-H2170 (HER2/ErbB2 amp, ATCC), human bronchioalveolar adenocarcinoma cell line NCI-H1781 (HER2/ErbB2 Ins G776V,C mutant type, ATCC) were cultured with a 1×RPMI1640 complete medium (10% FBS), respectively. Human lung adenocarcinoma cell line Calu-3 (HER2/ErbB2 amp, ATCC) was cultured with 1×MEM, 10% FBS, 1% double antibody, 1% NEAA (Gibco), 2 mM glutamine and 1 mM sodium pyruvate. The human breast cancer cell line SK-BR-3 (HER2/ErbB2 amp, ATCC) was cultured with a McCOY'S5A complete medium (10% FBS).
(§3) Adherent cells were digested with 0.25% pancreatin-EDTA (Gibco). The suspension cells were collected by centrifugation. The supernatant was discarded and the cell pellet was resuspended and counted. Different cell concentrations (5˜10×10^4 cells/mL) were prepared according to the growth cycle of each cell line and then seeded on a 96-well plate (Corning), 100 μL/well. The cells were incubated overnight at 37° C., 5% CO2. The compounds were added to the cells on the second day with 2 wells in parallel. The final concentration of organic solvent shall not exceed 1%. The cells were continually incubated for 3 to 5 days, and then subjected to MTT assay.
(§4) The compound of the present invention and the control compound were dissolved in DMSO (Sigma) respectively, with the purity of more than 98%. The compound was stored in a concentration of 10 mM at −20° C. and diluted to 2- or 10-fold series prior to use.
(§5) Dojindo CCK8 reagent kit was used as MTT assay. THERMO […] FC meter was used as microplate reader.
(§6) For adherent cells, culture medium was removed and immediately replaced with the fresh prepared medium which contains 10% CCK8 reagent (100 μL/well). For the suspension cells, CCK8 was directly added to 10% of the final concentration. The cells were continually incubated for 1˜4 h. When a dark yellow color could be observed in the solvent control wells, the absorbance value at OD450 nm was measured and the cell growth rate was calculated according to the following formula: Cell Growth Rate (%)=100*(T−T0)/(C−T0) T=optical density of drug treatment cell well—optical density of blank control well; T0=optical density of cell well before drug treatment—optical density of blank control well; C=optical density of cell well of solvent control group—optical density of blank control well. The concentration value of 50% inhibition of cell growth (GI50) was calculated according to the drug concentration and cell growth rate curve. The experiment was independently repeated 1˜3 times, and subject to biological statistical analysis. 4. Experimental Results
Tumor cell growth inhibition test was performed by selecting representative compounds (compounds 4, 11, 12, 16, 27, 68, 71, 77, 79, 89 and 116 of the present invention). […]

Assay [2] deals with HCT116 (KRAS G13D mutant type). Nature of the assay: In vitro growth inhibition (GI50), HCT116. To be noted: Homo sapiens, HCT-116.
Description: as §1, §2
Human large cell lung cancer cell NCI-H460 (KRAS […] mutant type, ATCC), human non-small cell lung cancer cell line H1299 (NRAS Q61K mutant type, ATCC), human melanoma cell line A375 (BRAF V600E mutant type, Shanghai Cell Bank of Chinese Academy of Sciences), human colon cancer cell line HCT116 (KRAS G13D mutant type, Shanghai Cell Bank, Chinese Academy of Sciences) were cultured in a complete medium of 1×RPMI1640 (10% FBS), respectively. Human non-small cell lung cancer cells A549 (KRAS G12S mutant type, Shanghai Cell Bank, Chinese Academy of Sciences) were cultured in a complete medium of 1× Ham's supplemented with 10% FBS, 1% double antibody, and 2 mM glutamine.
as §3, §4, §5, §6
Tumor cell growth inhibition test was performed by selecting representative compounds (compounds 4, 11, 12, 16, 27, 68, 71, 77, 79, 89 and 116 of the present invention). The initial concentration of the compound was 5,000 nM, then it was serially diluted by 2-fold or 10-fold to 0.01 nM. […]

As to `CC(C)(C)c1cc(NC(=O)Nc2ccc(-n3cnc4cc(OCCN5CCOCC5)ccc43)cc2)[nH]n1` [Compound 89, 1-(5-tert-butyl-2H-pyrazol-3-yl)-3-{4-[5-(2-morpholin-4-yl-ethoxyl)-benzimidazol-1-yl]-phenyl}-urea], the GI50 in the assay on HL-60 (FLT3 wild type) was over 1000 nM; in assay [1], over 2500 nM; in assay [2] it was over 2500 nM.

As to `CC(C)(C)c1cc(NC(=O)Nc2ccc(-n3cnc4cc(O)ccc43)cc2)no1` [Compound 4, 1-(5-tert-butyl-isoxazol-3-yl)-3-[4-(5-hydroxy-benzimidazol-1-yl)-phenyl]-urea], the GI50 in the assay on HL-60 (FLT3 wild type) is 100 to 1000 nM; in assay [1], over 2500 nM; in assay [2], over 2500 nM.

As for `CC(C)(C)c1cc(NC(=O)Nc2ccc(-n3cnc4cc(OCCO)ccc43)cc2)no1` [Compound 11, 1-(5-tert-butyl-isoxazol-3-yl)-3-{4-[5-(2-hydroxy-ethoxyl)-benzimidazol-1-yl]-phenyl]-urea], the GI50 in the assay with HL-60 (FLT3 wild type) was over 1000 nM; in assay [1], over 2500 nM; in assay [2], over 2500 nM.

As for `COCCOc1ccc2c(c1)ncn2-c1ccc(NC(=O)Nc2cc(C(C)(C)C)n[nH]2)cc1` [Compound 77, 1-(5-tert-butyl-2H-pyrazol-3-yl)-3-{4-[5-(2-methoxyl-ethoxyl)-benzimidazol-1-yl]-phenyl}-urea], the GI50 with HL-60 (FLT3 wild type) is over 1000 nM; in assay [1], over 2500 nM; in assay [2], over 2500 nM.

Turning to `CC(C)(C)c1cc(NC(=O)Nc2ccc(-n3cnc4ccccc43)cc2)[nH]n1` [Compound 68, 1-(4-benzimidazol-1-yl-phenyl)-3-(5-tert-butyl-2H-pyrazol-3-yl)-urea], the GI50 in the assay with HL-60 (FLT3 wild type) is over 1000 nM; in assay [1] it was over 2500 nM; in assay [2], over 2500 nM.

Turning to `CC(C)(C)c1cc(N)n(C(=O)Nc2ccc(-n3cnc4ccccc43)cc2)n1` [Compound 116, 5-amino-3-tert-butyl-pyrazol-1-carboxylic acid (4-benzimidazol-1-yl-phenyl)-amide], the GI50 in the assay with HL-60 (FLT3 wild type) is over 1000 nM; in assay [1], over 2500 nM; in assay [2] it was over 2500 nM.

Regarding `CC(C)(C)c1cc(NC(=O)Nc2ccc(-n3cnc4cc(OCCN5CCOCC5)ccc43)cc2)no1` [Compound 16, 1-(5-tert-butyl-isoxazol-3-yl)-3-{4-[5-(2-morpholin-4-yl-ethoxyl)-benzimidazol-1-yl]-phenyl}-urea], the GI50 in the assay on HL-60 (FLT3 wild type) is over 1000 nM; in assay [1], over 2500 nM; in assay [2], over 2500 nM.

`COc1ccc2c(c1)ncn2-c1ccc(NC(=O)Nc2cc(C(C)(C)C)n[nH]2)cc1` [Compound 71, 1-(5-tert-butyl-2H-pyrazol-3-yl)-3-[4-(5-methoxyl-benzimidazol-1-yl)-phenyl]-urea]: the GI50 is over 1000 nM in the assay on HL-60 (FLT3 wild type), over 2500 nM in assay [1] and over 2500 nM in assay [2].

Turning to `CC(C)(C)c1cc(NC(=O)Nc2ccc(-n3cnc4cc(OCCO)ccc43)cc2)[nH]n1` [Compound 79, 1-(5-tert-butyl-2H-pyrazol-3-yl)-3-{4-[5-(2-hydroxy-ethoxyl)-benzimidazol-1-yl]-phenyl]urea], the figures for the GI50 (in the assay with HL-60 (FLT3 wild type); in assay [1]; in assay [2]) were over 1000 nM, over 2500 nM and over 2500 nM, respectively.

Consider `CC(C)(C)c1cc(NC(=O)Nc2ccc(-n3cnc4ccc(OCCN5CCOCC5)cc43)cc2)no1` [Compound 27, 1-(5-tert-butyl-isoxazol-3-yl)-3-{4-[6-(2morpholin-4-yl-ethoxyl)-benzimidazol-1-yl]-phenyl}-urea], for which the GI50 was 100 to 1000 nM in the assay with HL-60 (FLT3 wild type), over 2500 nM in assay [1] and over 2500 nM in assay [2].
